Measurements: patent publication US20200121721A1, “METHODS FOR GENETIC MODIFICATION OF HEMATOPOIETIC CELLS” (THE BRIGHAM AND WOMEN'S HOSPITAL, INC., priority 2014, published 2020)
Square brackets hold non-standard residues; d marks the D form. Peptide text beside a SMILES is read from it. Aoe = N[C@@H](CCCCCC(=O)[C@@H]1CO1)C(=O)O

What was measured:
[1] = tested on: primary human CD34+ cells from PBSC; assay: Screening of compounds which increase CD34+CD90+ cells (high throughput flow cytometry); type: cell-based; settings: for CD34+CD90+ population compared with that of DMSO treated CD34+ cells: PBSC CD34+ cells, 4 or 5-day culture with cytokines (CC100), FIG. 1A; for absolute number of CD34+CD90+ cells: screen, compared with other compounds, FIG. 1B
Source text: Cells were stained with antihuman CD34 monoclonal antibody conjugated to phycoerythrin (PE), or allophycocyanin (APC), antihuman CD90 conjugated fluorescein isothiocyanate (FITC) or APC, CD38 APC, CD 3 tri-color (TC), CD19 TC, CD11b TC, CD41 TC, CD45 FITC and mouse CD45 APC. The flow cytometry data were collected using FACS Calibur flow cytometer (Becton Dickinson, San Jose, Calif., USA) or and analysed by using FLOWJO software.
To identify or confirm the molecules that expand CD34+CD90+ cells, the Inventors developed an assay using primary human CD34+ cells from PBSC and evaluated CD34 and CD90 expression by high throughput flow cytometry after a 4 or 5-day culture.
Using this assay, the Inventors screened FDA approved 446 compounds and 14 small molecule drugs including a panel of epigenetic modifiers as shown in Table 2. Human PBSC CD34+ cells were purified and cultured in IMDM with fetal bovine serum (FBS; GIBCO; final concentration 30%) and CC100 (a CD34 maintaining culture medium containing stem cell factor; SCF, Flt3 ligand; FL, Interleukin-3; IL3 and Interleukin-6; IL6; Stem Cell Technologies).

PBSC CD34+ cells [2] = assay: Ex vivo culture of PBSC CD34+ cells with TSA or MS275 (CD34+CD90+ expansion, cell growth); type: cell-based, human; settings: for expression of CD34+CD90+ cells after one day exposure: 24 hours exposure then washed or not washed, evaluated on day 3 and day 5; for growth rate compared with DMSO / cell growth (cell number) of CD34+ cells: FIG. 3A; for cell growth (cell number) of CD34+ cells: mean±SDV of three experiments; for absolute number of CD34+CD90+ cells: from day 5 to day 7
CD34+ cells [3] = assay: Annexin V staining (apoptosis); type: cell-based, human; settings: day 3, 5 and 7
Experimental: To investigate whether the lower total nucleated cell number observed in TSA treated culture was possibly due to apoptosis, annexin V staining with TSA, MS275 or DMSO treated cells on day 3, 5 and 7 was performed.

PBMC CD34+ cells [4] = assay: In vitro colony formation in methylcellulose (CFU assay); type: cell-based, human; settings: eight days after plating
Experimental: Tubes of MethoCult® H4434 (Stem Cell Technologies) medium were thawed overnight in a 4° C. refrigerator. The next morning CB CD34+ cells were prepared at 10× the final concentration required. Cell suspensions of 2000 cells per 0.3 mL were prepared. Cells were added to 3 mL of MethoCult® medium for duplicate cultures. A 16 gauge blunt-end needle attached to a 3 cc syringe was used to dispense the cells and MethoCult® medium into culture dishes. 1.1 mL of cells was dispensed per 35 mm dish. The two dishes were placed into a 100 mm petri dish and a third, uncovered 35 mm dish containing 3 mL of sterile water was also added. All 3 dishes were then covered within the 100 mm petri dish. […] […] CFUs were counted under the microscopy.
Since the CD34+CD90+ cells are a CD34+ subpopulation with severe combined immunodeficient (SCID) repopulating activity (SRA), The Inventors next test whether the preferential expansion of these cells mediated by TSA or MS-275 treatment can lead to increased hematopoietic differentiation/proliferation in vitro and SRA engraftment in vivo. The Inventors first treated PBMC CD34+ cells with TSA or MS-275 treatments followed by assessment of in vitro colony formation in methylcellulose. […] To quantify large and small colonies, The Inventors classified as large as >50 and small as 5-50 clusters, respectively.

CD34+ cells [5] = assay: CFSE labeling to assess cell division; type: cell-based, human; settings: by day 5, CFSE
Experimental: Primary CD34+ cells were labeled for 10 minutes at 37° C. with 0.5 uM of carboxyfluorescein diacetate succinimidyl ester (CSFE; Invirtogen, NY, USA) in PBS. After […] of culture, cell were labeled with CD34 PE and analyzed for a progressive decline of fluoredcence intensity of CSFE using FACSCalibur flow cytometer.
To assess whether the lower total nucleated cell number observed in TSA treated culture was due to a delay in differentiation or proliferation, the Inventors performed a cell-division-monitoring dye carboxyfluorescein succinimidyl ester (CFSE) assay, a fluorescent cytoplasmic dye which allowed counting of cell divisions of CD34+ cells after in vitro culture. While 66.0% of non-treated CD34+ cells divided at least more than 4 times by day 5, only 9.02% of TSA treated cells went through a similar number of cell divisions (FIG. 3B).
The Inventors then investigated whether TSA treatment led to increased CD34+CD90+ cells through self-renewal proliferation as assessed by surface markers. Using CD34+CD90− cells as a control population, the cell division profile of CD34+CD90+ cells upon TSA treatment was analyzed using the CSFE assay after 5 and 7 days of in vitro culture.

CB CD34+ cells = assay: Engraftment of cultured CD34+ cells in NSG mice (SCID repopulating activity); type: in vivo
Experimental: NSG (NOD.Cg-Prkdcscid Il2rgtm1Wjl/SzJ, The Jackson Laboratory, ME, USA) mice were bred and maintained in the Children's Hospital Boston animal facility. All animal work has been approved by and done according to the guidelines of the IACUC under protocol 10-101832. The CB CD34+ cells treated with wild type-peptide and scrambled-peptide were injected intravenously via the tail vein into sub-lethally irradiated (220 rads) 8 to 16-week-old NSG mice. Engraftment was performed within 24 h after irradiation. Peripheral blood (PB) chimerism was monitored at 2 and 8 weeks post transplantation. Bone marrow (BM) chimerism was monitored at 8 weeks post transplantation. […] The percentage of human CD45+ cells was calculated as follows: % human CD45+ cells=No. human CD45+ cells/(No. human CD45+ cells + No. mouse CD45+ cells)×100. […]
Based on in vitro phenotypic analysis described above, The Inventors transplanted cells after culture for 5 or7 days with cytokine alone or TSA into NSG mice to evaluate immunodeficient (SCID) repopulating activity (SRA) as a measure of enhanced HSPC function. Because Vanheuden et al, reported that severe combined immunodeficient (SCID) repopulating activity (rSRA) is mediated by CD34+CD38CD90+CD45RA− cells after in vitro culture, the Inventors first analyzed SRA activity in peripheral blood (PB) 2 weeks after transplant.

PBMC CD34+ cells [6] = assay: Lentiviral transduction (GFP vector) of CD34+ cells; type: cell-based, human
Experimental: Lentiviral particles were generated by transient co-transfection of 293T cells with the lentiviral vectors pLL3.7, pHR'8.9ΔVPR and pCMV-VSVG. CD34+ cells were infected in medium containing lentiviral particles and 8 μg/ml protamin. The culture medium was then removed and replaced with fresh media.
Next, the Inventors investigated whether expansion of CD34+CD90+ cells by TSA could affect the lentiviral transduction efficacy. A transfer vector encoding green fluorescent protein (GFP) was used for evaluation of lentiviral transduction. PBMC CD34+ cells were cultured with or without TSA for 3 days, followed by lentiviral transduction with protamin twice for 48 hours (FIG. 15A).

PBSC CD34+ cells [7] = assay: Real-time PCR of stem cell related genes; type: cell-based, human; settings: 3 days of culture, relative to DMSO, p<0.05
Source text: Inventors prepared RNA from cells treated with wild-type or scrambled peptide using TRIzol (Invitrogen). The Inventors synthesized cDNA using iScript cDNA Synthesis kit (Bio-Rad, CA, USA). To quantitate the level of mRNAs expression, The Inventors carried out polymerase chain reaction (PCR) amplification using iScript one-step RT-PCR kit with SYBER Green (Bio-Rad) and the PCR products were detected by use of SYBR green technology (ABI, Foster City, Calif., USA). GAPDH was used as an endogenous control. All samples were run in duplicate. Thermal cycler conditions were 50° C. for 2 minutes, 95° C. for 10 minutes, and 45 cycles of 95° C. for 0.30 minutes and 60° C. for 1 minute. Results were obtained as threshold cycle (Ct) values and normalized gene expression with GAPDH. Data were analyzed based on 2-ΔΔCT method using CFX Manager software (Bio-Rad). For QPCR primers see Table 1.
Next, to investigate the molecular mechanism responsible for the expansion of functional HSCs and HSPC observed following TSA treatment, the Inventors examined expression levels of a number of genes involved in self-renewal or differentiation of stem cells using realtime PCR.

[8] = tested on: cord blood CD34+CD90+ cells; settings: cited from earlier work
CD34+ cells [9] = assay: UM171 effect on division of CD34+ cells (total cell numbers); type: cell-based; settings: 50 nM to 500 nM (1 uM); commercial and synthesized UM171

Compound: Nc1ccccc1NC(=O)c1ccc(CNC(=O)OCc2cccnc2)cc1 [MS275]
- CD34+CD90+ population compared with that of DMSO treated CD34+ cells [1]: expanded CD34+CD90+ population
- absolute number of CD34+CD90+ cells [1]: expanded the absolute number of CD34+CD90+ cells more than that of other compounds
- expression of CD34+CD90+ cells after one day exposure (PBSC CD34+ cells [2]): limit the expression of CD34+CD90+ cells
- growth rate compared with DMSO (PBSC CD34+ cells [2]): about 2 times lower
- cell growth (cell number) of CD34+ cells (PBSC CD34+ cells [2]): 16.7×10^4±1.06
- absolute number of CD34+CD90+ cells (PBSC CD34+ cells [2]): increased
- apoptotic cells (annexin V) (CD34+ cells [3]; 500 nM): did not significantly increased apoptotic cells
- size of colonies derived from CFU-GM compared with control group (PBMC CD34+ cells [4]): much larger than control group

Compound: O=C(CCCCCCC(=O)Nc1ccccc1)NO [SAHA]
- CD34+CD90+ population compared with that of DMSO treated CD34+ cells [1]: expanded CD34+CD90+ population

Compound: CC(C)n1cnc2c(NCCc3ccc(O)cc3)nc(-c3csc4ccccc34)nc21 [SR1]
- CD34+CD90+ population compared with that of DMSO treated CD34+ cells [1]: expanded CD34+CD90+ population

Compound: CC(/C=C/C(=O)NO)=C\[C@@H](C)C(=O)c1ccc(N(C)C)cc1 [TSA, trichostatin]
- CD34+CD90+ population compared with that of DMSO treated CD34+ cells [1]: expanded CD34+CD90+ population
- absolute number of CD34+CD90+ cells [1]: expanded the absolute number of CD34+CD90+ cells more than that of other compounds
- expression of CD34+CD90+ cells after one day exposure (PBSC CD34+ cells [2]): limit the expression of CD34+CD90+ cells
- growth rate compared with DMSO (PBSC CD34+ cells [2]): about 2 times lower
- cell growth (cell number) of CD34+ cells (PBSC CD34+ cells [2]): 28.3×10^4±0.49
- expansion of CD34+CD90+ cells compared with DMSO treated cells (PBSC CD34+ cells [2]; day 3, day 5 and day 7, p<0.05): preferential expansion of CD34+CD90+ cells
- absolute number of CD34+CD90+ cells (PBSC CD34+ cells [2]): increased
- CD34+CD90+ cells less divided than CD34+CD90− cells (CD34+ cells [5]; TSA treatment): 31.4%
- CD34+CD90+ cells more divided than CD34+CD90− cells (CD34+ cells [5]; TSA treatment): about 66.7%
- CD34+ cells divided at least more than 4 times (CD34+ cells [5]): 9.02%
- apoptotic cells (annexin V) (CD34+ cells [3]; 50 nM): did not significantly increased apoptotic cells
- size of colonies derived from CFU-GM compared with control group (PBMC CD34+ cells [4]): much larger than control group
- proportion of large (>50 clusters) and small (5-50 clusters) colonies (PBMC CD34+ cells [4]; FIG. 13B): gave mainly rise to large colonies
- percentage of human CD45+ engraftment in peripheral blood (CB CD34+ cells; 2 weeks after transplant, day 5 progeny of 2×10^4 CB CD34+ cells, vs cytokine alone): higher percentage of human CD45+ engraftment
- marrow-repopulating potential (human CD45+ cell engraftment in PB and BM) (CB CD34+ cells; 8 weeks after transplantation): enhances the marrow-repopulating potential
- lentiviral transduction for CD34+ cells ex vivo (PBMC CD34+ cells [6]): promoted the lentiviral transduction
- percentage of CD34+GFP+ cells (PBMC CD34+ cells [6]; 3 days culture with TSA, then lentiviral transduction, vs cells without treatment): higher than that of cells without treatment
- levels of transcripts for GATA1, GATA2, HOXA9, HOXB4, PTEN, SALL4, p53, TPO and CD34 genes (PBSC CD34+ cells [7]): higher levels of transcripts
- expansion of CD34+CD90+ cells (reported) [8]: reported to expand CD34+CD90+ cells

Compound: Cn1nnc(-c2ccc3c(c2)[nH]c2nc(Cc4ccccc4)nc(NC4CCC(N)CC4)c23)n1 (stereo not drawn) [UM171]
- total cell numbers (CD34+ cells [9]): very similar

Compound: COc1cc2c(NC3CCN(C(C)C)CC3)nc(C3CCCCC3)nc2cc1OCCCN1CCCC1 [UNC0638]
- CD34+CD90+ population compared with that of DMSO treated CD34+ cells [1]: expanded CD34+CD90+ population

Compound: CCCC(CCC)C(=O)O [Valproic acid]
- expansion of CD34+CD90+ cells (reported) [8]: reported to expand CD34+CD90+ cells

Compound: O=C1N[C@@H](Cc2ccccc2)C(=O)N2CCC[C@@H]2C(=O)N[C@@H](CCCCCC(=O)[C@@H]2CO2)C(=O)N[C@H]1Cc1ccccc1 [trapoxin] (cyclo(FF[dP][Aoe]))
- expansion of CD34+CD90+ cells (reported) [8]: reported to expand CD34+CD90+ cells
